Results: patent US9899125B2, “Medium- or high-voltage electrical appliance having a low environmental impact and hybrid insulation” (Alstom Technology Ltd., priority 2012, dated 2018)

Assays:
[1] = Toxicity for humans and animals (statement)
Text: Currently, the most widely-used gas in that type of equipment is sulfur hexafluoride (SF6). That gas presents dielectric strength that is relatively high, good thermal conductivity, and low dielectric losses. It is chemically inert, non-toxic for humans and animals and, after being dissociated by an electric arc, it recombines quickly and almost completely. In addition, it is non-flammable and its price is still moderate.

[2] = Toxicity: LC50 (lethal concentration, 50%); type: in vivo; conditions: pure heptafluoroisobutyronitrile
[3] = prior art statement; cited from earlier work

| Structure (SMILES) | toxicity for humans [1] | LC50 (lethal concentration, 50%) [2] | toxicity for humans and animals [3] |
| --- | --- | --- | --- |
| N#CC(F)(C(F)(F)F)C(F)(F)F [Heptafluoroisobutyronitrile, 2,3,3,3-tetrafluoro-2-trifluoromethyl propanenitrile] | no specific toxicity | greater than 15000 ppm | – |
| FS(F)(F)(F)(F)F [SF6, sulfur hexafluoride] | – | – | non-toxic |
